# Data taken from patent US20230340011A1 (Asteroid Therapeutics, priority 2022, published 2023).
# pEC50: −log10 of the molar value.
# Target: LXRβ (Homo sapiens (Human), UniProt P55055)
# Test: In vitro assay LXRβ: PathHunter NHR CHO cells, LXRβ / Steroid Receptor Co-activator Peptide enzyme fragment complementation
# Assay type: cell-based
# Settings: PathHunter NHR CHO cells, full-length human LXRβ and SRCP, chemiluminescent signal; read-out: LXRβ PPI
# Method: PathHunter NHR CHO cells stably transfected with tagged full-length human LXRβ and a nuclear fusion protein containing Steroid Receptor Co-activator Peptide (SRCP). The full-length human LXRβ was tagged with the ProLink™ component of the DiscoverX Enzyme Fragment Complementation (EFC) system and the SRCP domain is fused to the enzyme acceptor component (EA) expressed in the nucleus. Cells were seeded in a total volume of 20 μL into white walled, 384-well microplates and incubated at 37° C. overnight prior to testing. Assay media contained charcoal-dextran filtered serum to reduce the level of hormones present. Final assay vehicle concentration was 1%. […] Microplates were read following signal generation with a PerkinElmer Envision instrument for chemiluminescent signal detection.
# Sequence of LXRβ (P55055 whole entry, the tested form may be a part): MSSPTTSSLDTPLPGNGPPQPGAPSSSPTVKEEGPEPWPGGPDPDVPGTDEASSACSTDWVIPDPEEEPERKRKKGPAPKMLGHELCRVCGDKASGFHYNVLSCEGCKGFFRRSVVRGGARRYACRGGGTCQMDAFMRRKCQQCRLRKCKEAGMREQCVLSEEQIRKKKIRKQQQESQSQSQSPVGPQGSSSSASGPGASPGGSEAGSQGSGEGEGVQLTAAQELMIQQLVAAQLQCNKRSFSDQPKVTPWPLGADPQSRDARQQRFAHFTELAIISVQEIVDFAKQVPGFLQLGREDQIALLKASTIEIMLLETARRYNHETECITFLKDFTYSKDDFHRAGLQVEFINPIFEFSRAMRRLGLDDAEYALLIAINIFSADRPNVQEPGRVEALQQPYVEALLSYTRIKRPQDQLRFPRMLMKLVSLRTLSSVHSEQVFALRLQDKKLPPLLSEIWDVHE
row,SMILES,pEC50
1,"C[C@H](CCC(=O)N1CCC(C)(O)CC1)[C@H]1CC[C@H]2[C@@H]3CC=C4C[C@@H](O)CC[C@]4(C)[C@H]3CC[C@]12C [Example 6, (R)-4-((3S,8S,9S,10R,13R,14S,17R)-3-hydroxy-10,13-dimethyl-2,3,4,7,8,9,10,11,12,13,14,15,16,17-tetradecahydro-1H-cyclopenta[a]phenanthren-17-yl)-1-(4-hydroxy-4-methylpiperidin-1-yl)pentan-1-one]",6.00 to 6.60
2,"CC(NS(C)(=O)=O)C1CCN(C(=O)CC[C@@H](C)[C@H]2CC[C@H]3[C@@H]4CC=C5C[C@@H](O)CC[C@]5(C)[C@H]4CC[C@]23C)CC1 (stereo partly drawn) [Example 475, N-(1-(1-((R)-4-((3S,8S,9S,10R,13R,14S,17R)-3-hydroxy-10,13-dimethyl-2,3,4,7,8,9,10,11,12,13,14,15,16,17-tetradecahydro-1H-cyclopenta[a]phenanthren-17-yl)pentanoyl)piperidin-4-yl)ethyl)methanesulfonamide]",< 5.00
3,"CCCCN(OC)C(=O)CC[C@@H](C)[C@H]1CC[C@H]2[C@@H]3CC=C4C[C@@H](O)CC[C@]4(C)[C@H]3CC[C@]12C [Example 17, (R)—N-butyl-4-((3S,8S,9S,10R,13R,14S,17R)-3-hydroxy-10,13-dimethyl-2,3,4,7,8,9,10,11,12,13,14,15,16,17-tetradecahydro-1H-cyclopenta[a]phenanthren-17-yl)-N-methoxypentanamide]",5.00 to 6.00
4,"C[C@H](CCC(=O)N1CC[C@H](Oc2ccncn2)C1)[C@H]1CC[C@H]2[C@@H]3CC=C4C[C@@H](O)CC[C@]4(C)[C@H]3CC[C@]12C [Example 216, (4R)-4-[(1R,3aS,3bS,7S,9aR,9bS,11aR)-7-hydroxy-9a,11a-dimethyl-1H,2H,3H,3aH,3bH,4H,6H,7H,8H,9H,9aH,9bH,10H,11H,11aH-cyclopenta[a]phenanthren-1-yl]-1-[(3S)-3-(pyrimidin-4-yloxy)pyrrolidin-1-yl]pentan-1-one]",< 5.00
5,"CC(=O)N1CCN(C(=O)CC[C@@H](C)[C@H]2CC[C@H]3[C@@H]4CC=C5C[C@@H](O)CC[C@]5(C)[C@H]4CC[C@]23C)C[C@H]1C [Example 278, (R)-1-((R)-4-acetyl-3-methylpiperazin-1-yl)-4-((3S,8S,9S,10R,13R,14S,17R)-3-hydroxy-10,13-dimethyl-2,3,4,7,8,9,10,11,12,13,14,15,16,17-tetradecahydro-1H-cyclopenta[a]phenanthren-17-yl)pentan-1-one]",< 5.00
6,"C[C@H](CCC(=O)N1CCN(c2ccnn2C)CC1)[C@H]1CC[C@H]2[C@@H]3CC=C4C[C@@H](O)CC[C@]4(C)[C@H]3CC[C@]12C [Example 226, (R)-4-((3S,8S,9S,10R,13R,14S,17R)-3-hydroxy-10,13-dimethyl-2,3,4,7,8,9,10,11,12,13,14,15,16,17-tetradecahydro-1H-cyclopenta[a]phenanthren-17-yl)-1-(4-(1-methyl-1H-pyrazol-5-yl)piperazin-1-yl)pentan-1-one]",< 5.00
7,"C[C@H](CCC(=O)N1CCN(C(=O)c2ccnnc2)CC1)[C@H]1CC[C@H]2[C@@H]3CC=C4C[C@@H](O)CC[C@]4(C)[C@H]3CC[C@]12C [Example 312, (R)-4-((3S,8S,9S,10R,13R,14S,17R)-3-hydroxy-10,13-dimethyl-2,3,4,7,8,9,10,11,12,13,14,15,16,17-tetradecahydro-1H-cyclopenta[a]phenanthren-17-yl)-1-(4-(pyridazine-4-carbonyl)piperazin-1-yl) pentan-1-one]",< 5.00
8,"C[C@H](CCC(=O)N1CCC(CN(C)S(C)(=O)=O)CC1)[C@H]1CC[C@H]2[C@@H]3CC=C4C[C@@H](O)CC[C@]4(C)[C@H]3CC[C@]12C [Example 230, N-((1-((R)-4-((3S,8S,9S,10R,13R,14S,17R)-3-hydroxy-10,13-dimethyl-2,3,4,7,8,9,10,11,12,13,14,15,16,17-tetradecahydro-1H-cyclopenta[a]phenanthren-17-yl)pentanoyl)piperidin-4-yl)methyl)-N-methylmethanesulfonamide]",< 5.00
9,"CC(=O)N1CCN(C(=O)CC[C@@H](C)[C@H]2CC[C@H]3[C@@H]4CC=C5C[C@@H](O)CC[C@]5(C)[C@H]4CC[C@]23C)[C@H](C)C1 [Example 275, (4R)-4-[(1R,3aS,3bS,7S,9aR,9bS,11aR)-7-hydroxy-9a,11a-dimethyl-1H,2H,3H,3aH,3bH,4H,6H,7H,8H,9H,9aH,9bH,10H,11H,11aH-cyclopenta[a]phenanthren-1-yl]-1-[(2R)-4-acetyl-2-methylpiperazin-1-yl]pentan-1-one]",< 5.00
10,"C[C@H](CCC(=O)N1CCN(c2cncnc2)CC1)[C@H]1CC[C@H]2[C@@H]3CC=C4C[C@@H](O)CC[C@]4(C)[C@H]3CC[C@]12C [Example 222, (R)-4-((3S,8S,9S,10R,13R,14S,17R)-3-hydroxy-10,13-dimethyl-2,3,4,7,8,9,10,11,12,13,14,15,16,17-tetradecahydro-1H-cyclopenta[a]phenanthren-17-yl)-1-(4-(pyrimidin-5-yl)piperazin-1-yl)pentan-1-one]",< 5.00
11,"C[C@H](OC(=O)C(N)=O)[C@H]1CC[C@H]2[C@@H]3CC=C4C[C@@H](O)CC[C@]4(C)[C@H]3CC[C@]12C [Example 144, (S)-1-((3S,8S,9S,10R,13S,14S,17S)-3-hydroxy-10,13-dimethyl-2,3,4,7,8,9,10,11,12,13,14,15,16,17-tetradecahydro-1H-cyclopenta[a]phenanthren-17-yl)ethyl 2-amino-2-oxoacetate]",< 5.00
12,"C[C@H](CCC(=O)N1CCN(c2ccncn2)CC1)[C@H]1CC[C@H]2[C@@H]3CC=C4C[C@@H](O)CC[C@]4(C)[C@H]3CC[C@]12C [Example 302, (R)-4-((3S,8S,9S,10R,13R,14S,17R)-3-hydroxy-10,13-dimethyl-2,3,4,7,8,9,10,11,12,13,14,15,16,17-tetradecahydro-1H-cyclopenta[a]phenanthren-17-yl)-1-(4-(pyrimidin-4-yl)piperazin-1-yl)pentan-1-one]",< 5.00
13,"C[C@H](CCC(=O)N1CCC(CNS(C)(=O)=O)CC1)[C@H]1CC[C@H]2[C@@H]3CC=C4C[C@@H](O)CC[C@]4(C)[C@H]3CC[C@]12C [Example 232, N-((1-((R)-4-((3S,8S,9S,10R,13R,14S,17R)-3-hydroxy-10,13-dimethyl-2,3,4,7,8,9,10,11,12,13,14,15,16,17-tetradecahydro-1H-cyclopenta[a]phenanthren-17-yl)pentanoyl)piperidin-4-yl)methyl)methanesulfonamide]",< 5.00
14,"CC(NS(C)(=O)=O)C1CCN(C(=O)CC[C@@H](C)[C@H]2CC[C@H]3[C@@H]4CC=C5C[C@@H](O)CC[C@]5(C)[C@H]4CC[C@]23C)CC1 (stereo partly drawn) [Example 229, N-(1-(1-((R)-4-((3S,8S,9S,10R,13R,14S,17R)-3-hydroxy-10,13-dimethyl-2,3,4,7,8,9,10,11,12,13,14,15,16,17-tetradecahydro-1H-cyclopenta[a]phenanthren-17-yl)pentanoyl)piperidin-4-yl)ethyl)methanesulfonamide]",< 5.00
15,"C[C@H](CCC(=O)N(C)CCc1ccccn1)[C@H]1CC[C@H]2[C@@H]3CC=C4C[C@@H](O)CC[C@]4(C)[C@H]3CC[C@]12C [Example 293, (4R)-4-[(1R,3aS,3bS,7S,9aR,9bS,11aR)-7-hydroxy-9a,11a-dimethyl-1H,2H,3H,3aH,3bH,4H,6H,7H,8H,9H,9aH,9bH,10H,11H,11aH-cyclopenta[a]phenanthren-1-yl]-N-methyl-N-[2-(pyridin-2-yl)ethyl]pentanamide]",6.00 to 6.60
16,"CC(NC(=O)C(C)(C)O)C1CCN(C(=O)CC[C@@H](C)[C@H]2CC[C@H]3[C@@H]4CC=C5C[C@@H](O)CC[C@]5(C)[C@H]4CC[C@]23C)CC1 (stereo partly drawn) [Example 227, 2-hydroxy-N-(1-(1-((R)-4-((3S,8S,9S,10R,13R,14S,17R)-3-hydroxy-10,13-dimethyl-2,3,4,7,8,9,10,11,12,13,14,15,16,17-tetradecahydro-1H-cyclopenta[a]phenanthren-17-yl)pentanoyl)piperidin-4-yl)ethyl)-2-methylpropanamide]",< 5.00
17,"CC(=O)N1CCN(C(=O)CC[C@@H](C)[C@H]2CC[C@H]3[C@@H]4CC=C5C[C@@H](O)CC[C@]5(C)[C@H]4CC[C@]23C)C[C@@H]1C [Example 427, (R)-1-((S)-4-acetyl-3-methylpiperazin-1-yl)-4-((3S,8S,9S,10R,13R,14S,17R)-3-hydroxy-10,13-dimethyl-2,3,4,7,8,9,10,11,12,13,14,15,16,17-tetradecahydro-1H-cyclopenta[a]phenanthren-17-yl)pentan-1-one]",< 5.00
18,"C[C@H](CCC(=O)N1CCN(c2ncccn2)CC1)[C@H]1CC[C@H]2[C@@H]3CC=C4C[C@@H](O)CC[C@]4(C)[C@H]3CC[C@]12C [Example 305, (R)-4-((3S,8S,9S,10R,13R,14S,17R)-3-hydroxy-10,13-dimethyl-2,3,4,7,8,9,10,11,12,13,14,15,16,17-tetradecahydro-1H-cyclopenta[a]phenanthren-17-yl)-1-(4-(pyrimidin-2-yl)piperazin-1-yl)pentan-1-one]",< 5.00
19,"C[C@H](CCC(=O)N1O[C@H]2C[C@@H]1[C@H](O)[C@@H]2O)[C@H]1CC[C@H]2[C@@H]3CC=C4C[C@@H](O)CC[C@]4(C)[C@H]3CC[C@]12C [Example 54, (R)-1-((1S,4R,5S,6S)-5,6-dihydroxy-2-oxa-3-azabicyclo [2.2.1]heptan-3-yl)-4-((3S,8S,9S,10R,13R,14S,17R)-3-hydroxy-10,13-dimethyl-2,3,4,7,8,9,10,11,12,13,14,15,16,17-tetradecahydro-1H-cyclopenta[a]phenanthren-17-yl) pentan-1-one]",< 5.00
